Blank lines part the entries; values can stand above or below the compound they belong to.
Tests used:
[1] = target: Vascular endothelial growth factor receptor 2 (Homo sapiens, UniProt P35968); experiment: Inhibition of VEGFR2
[2] = target: Epidermal growth factor receptor (Homo sapiens, UniProt P00533); experiment: Inhibition of EGFR
[3] = target: Insulin-like growth factor 1 receptor (Homo sapiens, UniProt P08069); experiment: Inhibition of IGF1R
[4] = target: Vascular endothelial growth factor receptor 3 (Homo sapiens, UniProt P35916); experiment: Inhibition of VEGFR3
[5] = target: Cyclin-dependent kinase 4/cyclin D1 (Homo sapiens, UniProt P11802); experiment: Inhibition of human CDK4/Cyclin D1; type: protein-complex assay
[6] = target: Serine/threonine-protein kinase VRK1 (Homo sapiens, UniProt Q99986); experiment: Inhibition of human VRK1
Angiopoietin-1 receptor = Angiopoietin-1 receptor (Homo sapiens, UniProt Q02763); experiment: Inhibition of human TIE2
[7] = target: Homeodomain-interacting protein kinase 1 (Homo sapiens, UniProt Q86Z02); experiment: Inhibition of human HIPK1
Misshapen-like kinase 1 = Misshapen-like kinase 1 (Homo sapiens, UniProt Q8N4C8); experiment: Inhibition of human INK1
CDK6/cyclin D1 = CDK6/cyclin D1 (Homo sapiens, UniProt Q00534); experiment: Inhibition of human CDK6/Cyclin D1; type: protein-complex assay
Aurora kinase C = Aurora kinase C (Homo sapiens, UniProt Q9UQB9); experiment: Inhibition of human Aurora C
[8] = target: Mitogen-activated protein kinase 3 (Homo sapiens, UniProt P27361); experiment: Inhibition of human ERK1
[9] = target: Dual specificity tyrosine-phosphorylation-regulated kinase 1A (Homo sapiens, UniProt Q13627); experiment: Inhibition of human DYRK1A
Insulin receptor = Insulin receptor (Homo sapiens, UniProt P06213); experiment: Inhibition of human InsR
[10] = target: Dual specificity protein kinase CLK1 (Homo sapiens, UniProt P49759); experiment: Inhibition of human CLK1
[11] = target: Insulin receptor-related protein (Homo sapiens, UniProt P14616); experiment: Inhibition of human InsRR
[12] = target: Cyclin-dependent kinase 5/CDK5 activator 1 (Homo sapiens, UniProt Q00535); experiment: Inhibition of human CDK5/p25; type: protein-complex assay
Focal adhesion kinase 1 = Focal adhesion kinase 1 (Homo sapiens, UniProt Q05397); experiment: Inhibition of human FAK
[13] = target: Serine/threonine-protein kinase Nek3 (Homo sapiens, UniProt P51956); experiment: Inhibition of human Nek3
[14] = target: Interleukin-1 receptor-associated kinase 1 (Homo sapiens, UniProt P51617); experiment: Inhibition of human IRAK1
[15] = target: Serine/threonine-protein kinase PLK1 (Homo sapiens, UniProt P53350); experiment: Inhibition of human PLK1
Wee1-like protein kinase = Wee1-like protein kinase (Homo sapiens, UniProt P30291); experiment: Inhibition of human WEE1
[16] = target: Tyrosine-protein kinase ABL2 (Homo sapiens, UniProt P42684); experiment: Inhibition of human ABL2
[17] = target: Protein kinase C iota type (Homo sapiens, UniProt P41743); experiment: Inhibition of human PKC-iota
[18] = target: Tyrosine-protein kinase ABL1 (Homo sapiens, UniProt P00519); experiment: Inhibition of human ABL1
Aurora kinase A = Aurora kinase A (Homo sapiens, UniProt O14965); experiment: Inhibition of human Aurora A
[19] = target: Protein kinase C gamma type (Homo sapiens, UniProt P05129); experiment: Inhibition of human PKC-gamma
LIM domain kinase 1 = LIM domain kinase 1 (Homo sapiens, UniProt P53667); experiment: Inhibition of human LIMK1
[20] = target: Mitogen-activated protein kinase 14 (Homo sapiens, UniProt Q16539); experiment: Inhibition of human p38-alpha
[21] = Growth inhibition of human NCI60 cells by SBR assay; type: functional
[22] = Cytotoxicity against human NCI60 cells by SBR assay; type: functional

Sequence of Insulin-like growth factor 1 receptor (P08069 31-736 limits assumed): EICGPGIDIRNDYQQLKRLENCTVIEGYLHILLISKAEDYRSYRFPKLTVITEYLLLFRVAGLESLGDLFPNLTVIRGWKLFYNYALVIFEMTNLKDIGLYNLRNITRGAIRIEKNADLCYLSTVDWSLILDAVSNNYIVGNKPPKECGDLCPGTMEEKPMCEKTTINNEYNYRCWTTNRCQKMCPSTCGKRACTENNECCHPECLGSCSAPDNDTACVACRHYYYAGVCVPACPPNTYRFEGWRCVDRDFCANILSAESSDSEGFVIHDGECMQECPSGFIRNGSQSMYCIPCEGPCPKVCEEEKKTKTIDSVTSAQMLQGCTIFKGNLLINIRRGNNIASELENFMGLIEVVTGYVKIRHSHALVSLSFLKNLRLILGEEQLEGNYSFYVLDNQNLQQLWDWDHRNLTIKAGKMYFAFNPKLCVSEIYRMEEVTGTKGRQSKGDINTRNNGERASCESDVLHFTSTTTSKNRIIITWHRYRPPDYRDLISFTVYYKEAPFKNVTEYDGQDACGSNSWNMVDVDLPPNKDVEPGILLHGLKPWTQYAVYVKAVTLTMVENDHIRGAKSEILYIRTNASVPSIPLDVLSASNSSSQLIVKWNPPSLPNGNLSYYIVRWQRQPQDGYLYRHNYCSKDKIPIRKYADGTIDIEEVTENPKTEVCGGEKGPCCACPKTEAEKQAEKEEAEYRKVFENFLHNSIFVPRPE
Sequence of Insulin-like growth factor 1 receptor (P08069 741-1367 limits assumed): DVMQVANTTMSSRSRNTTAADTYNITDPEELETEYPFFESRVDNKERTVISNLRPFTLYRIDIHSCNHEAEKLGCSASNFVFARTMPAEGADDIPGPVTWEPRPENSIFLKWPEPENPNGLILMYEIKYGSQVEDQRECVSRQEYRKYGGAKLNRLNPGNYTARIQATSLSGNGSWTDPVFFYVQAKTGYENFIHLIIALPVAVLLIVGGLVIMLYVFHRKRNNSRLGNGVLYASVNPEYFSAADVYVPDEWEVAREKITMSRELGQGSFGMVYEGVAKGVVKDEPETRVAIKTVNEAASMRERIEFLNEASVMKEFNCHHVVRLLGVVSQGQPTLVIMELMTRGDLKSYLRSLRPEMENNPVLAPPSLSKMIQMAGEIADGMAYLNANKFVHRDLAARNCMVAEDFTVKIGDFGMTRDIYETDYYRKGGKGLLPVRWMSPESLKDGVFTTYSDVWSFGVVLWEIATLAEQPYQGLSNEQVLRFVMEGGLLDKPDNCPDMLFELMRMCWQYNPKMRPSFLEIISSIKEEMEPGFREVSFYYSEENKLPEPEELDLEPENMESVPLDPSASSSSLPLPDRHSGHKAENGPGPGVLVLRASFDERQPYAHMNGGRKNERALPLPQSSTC
Sequence of Vascular endothelial growth factor receptor 3 (P35916 whole entry): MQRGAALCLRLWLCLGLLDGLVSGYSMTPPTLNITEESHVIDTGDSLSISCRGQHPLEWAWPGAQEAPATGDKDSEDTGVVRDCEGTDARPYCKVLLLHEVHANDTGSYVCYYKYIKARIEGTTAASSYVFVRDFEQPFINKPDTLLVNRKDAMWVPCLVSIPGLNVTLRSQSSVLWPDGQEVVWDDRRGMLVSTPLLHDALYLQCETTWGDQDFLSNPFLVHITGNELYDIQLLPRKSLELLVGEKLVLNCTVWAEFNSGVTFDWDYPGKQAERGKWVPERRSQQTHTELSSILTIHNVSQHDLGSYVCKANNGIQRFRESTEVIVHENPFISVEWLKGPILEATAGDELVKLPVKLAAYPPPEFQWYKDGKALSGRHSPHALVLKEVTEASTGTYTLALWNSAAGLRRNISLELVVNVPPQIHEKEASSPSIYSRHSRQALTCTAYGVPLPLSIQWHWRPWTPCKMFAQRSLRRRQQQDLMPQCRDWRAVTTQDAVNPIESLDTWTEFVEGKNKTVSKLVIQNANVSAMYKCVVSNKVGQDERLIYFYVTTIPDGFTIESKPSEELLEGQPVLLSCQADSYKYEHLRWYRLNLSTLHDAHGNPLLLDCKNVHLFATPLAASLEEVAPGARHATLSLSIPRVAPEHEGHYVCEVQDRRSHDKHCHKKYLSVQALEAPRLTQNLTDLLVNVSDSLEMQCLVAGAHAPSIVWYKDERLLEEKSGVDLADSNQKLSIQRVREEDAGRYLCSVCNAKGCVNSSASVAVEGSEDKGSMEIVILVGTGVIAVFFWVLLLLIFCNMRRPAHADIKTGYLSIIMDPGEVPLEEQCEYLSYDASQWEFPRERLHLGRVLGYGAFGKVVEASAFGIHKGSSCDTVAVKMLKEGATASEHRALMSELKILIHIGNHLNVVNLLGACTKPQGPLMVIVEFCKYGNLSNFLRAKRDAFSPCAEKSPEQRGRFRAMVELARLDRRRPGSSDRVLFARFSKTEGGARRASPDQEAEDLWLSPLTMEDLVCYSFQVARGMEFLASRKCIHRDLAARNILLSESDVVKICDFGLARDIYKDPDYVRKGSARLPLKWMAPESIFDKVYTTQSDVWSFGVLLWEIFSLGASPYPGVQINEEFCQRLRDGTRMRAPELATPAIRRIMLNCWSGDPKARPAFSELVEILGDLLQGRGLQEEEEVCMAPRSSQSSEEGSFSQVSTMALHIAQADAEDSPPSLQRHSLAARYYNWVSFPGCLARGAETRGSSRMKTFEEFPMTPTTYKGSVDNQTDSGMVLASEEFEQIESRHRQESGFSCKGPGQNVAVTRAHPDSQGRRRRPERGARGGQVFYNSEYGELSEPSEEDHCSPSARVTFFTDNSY
Sequence of Epidermal growth factor receptor (P00533 whole entry): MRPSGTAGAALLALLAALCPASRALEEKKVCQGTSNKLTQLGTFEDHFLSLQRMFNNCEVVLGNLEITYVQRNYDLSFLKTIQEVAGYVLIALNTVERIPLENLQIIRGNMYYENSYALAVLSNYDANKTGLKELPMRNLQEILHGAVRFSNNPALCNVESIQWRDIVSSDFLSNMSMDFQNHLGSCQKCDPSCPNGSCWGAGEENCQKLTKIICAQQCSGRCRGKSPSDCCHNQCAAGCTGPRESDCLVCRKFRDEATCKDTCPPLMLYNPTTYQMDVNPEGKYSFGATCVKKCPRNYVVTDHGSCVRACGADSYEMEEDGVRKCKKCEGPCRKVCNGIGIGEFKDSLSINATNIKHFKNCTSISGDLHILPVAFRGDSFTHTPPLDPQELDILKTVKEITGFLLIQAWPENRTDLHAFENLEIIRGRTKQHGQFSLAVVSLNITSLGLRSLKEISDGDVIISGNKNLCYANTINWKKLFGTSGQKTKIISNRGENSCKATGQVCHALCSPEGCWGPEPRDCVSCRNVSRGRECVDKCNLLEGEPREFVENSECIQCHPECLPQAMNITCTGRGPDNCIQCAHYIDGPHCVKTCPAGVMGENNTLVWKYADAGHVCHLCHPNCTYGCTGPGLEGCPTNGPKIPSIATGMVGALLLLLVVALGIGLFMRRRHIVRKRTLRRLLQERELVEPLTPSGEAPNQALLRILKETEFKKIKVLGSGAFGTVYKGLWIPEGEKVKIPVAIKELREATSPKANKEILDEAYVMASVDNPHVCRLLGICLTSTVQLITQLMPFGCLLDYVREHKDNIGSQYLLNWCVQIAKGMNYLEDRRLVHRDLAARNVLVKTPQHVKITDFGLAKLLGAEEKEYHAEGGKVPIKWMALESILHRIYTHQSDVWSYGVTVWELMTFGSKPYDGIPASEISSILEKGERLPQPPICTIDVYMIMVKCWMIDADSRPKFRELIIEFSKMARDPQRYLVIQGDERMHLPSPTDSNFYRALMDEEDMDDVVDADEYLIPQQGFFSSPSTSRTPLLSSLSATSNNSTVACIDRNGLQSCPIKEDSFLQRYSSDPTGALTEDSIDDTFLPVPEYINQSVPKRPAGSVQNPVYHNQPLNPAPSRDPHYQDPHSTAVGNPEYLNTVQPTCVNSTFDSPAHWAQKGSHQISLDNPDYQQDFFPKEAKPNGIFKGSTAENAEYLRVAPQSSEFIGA
Sequence of Tyrosine-protein kinase ABL1 (P00519 whole entry): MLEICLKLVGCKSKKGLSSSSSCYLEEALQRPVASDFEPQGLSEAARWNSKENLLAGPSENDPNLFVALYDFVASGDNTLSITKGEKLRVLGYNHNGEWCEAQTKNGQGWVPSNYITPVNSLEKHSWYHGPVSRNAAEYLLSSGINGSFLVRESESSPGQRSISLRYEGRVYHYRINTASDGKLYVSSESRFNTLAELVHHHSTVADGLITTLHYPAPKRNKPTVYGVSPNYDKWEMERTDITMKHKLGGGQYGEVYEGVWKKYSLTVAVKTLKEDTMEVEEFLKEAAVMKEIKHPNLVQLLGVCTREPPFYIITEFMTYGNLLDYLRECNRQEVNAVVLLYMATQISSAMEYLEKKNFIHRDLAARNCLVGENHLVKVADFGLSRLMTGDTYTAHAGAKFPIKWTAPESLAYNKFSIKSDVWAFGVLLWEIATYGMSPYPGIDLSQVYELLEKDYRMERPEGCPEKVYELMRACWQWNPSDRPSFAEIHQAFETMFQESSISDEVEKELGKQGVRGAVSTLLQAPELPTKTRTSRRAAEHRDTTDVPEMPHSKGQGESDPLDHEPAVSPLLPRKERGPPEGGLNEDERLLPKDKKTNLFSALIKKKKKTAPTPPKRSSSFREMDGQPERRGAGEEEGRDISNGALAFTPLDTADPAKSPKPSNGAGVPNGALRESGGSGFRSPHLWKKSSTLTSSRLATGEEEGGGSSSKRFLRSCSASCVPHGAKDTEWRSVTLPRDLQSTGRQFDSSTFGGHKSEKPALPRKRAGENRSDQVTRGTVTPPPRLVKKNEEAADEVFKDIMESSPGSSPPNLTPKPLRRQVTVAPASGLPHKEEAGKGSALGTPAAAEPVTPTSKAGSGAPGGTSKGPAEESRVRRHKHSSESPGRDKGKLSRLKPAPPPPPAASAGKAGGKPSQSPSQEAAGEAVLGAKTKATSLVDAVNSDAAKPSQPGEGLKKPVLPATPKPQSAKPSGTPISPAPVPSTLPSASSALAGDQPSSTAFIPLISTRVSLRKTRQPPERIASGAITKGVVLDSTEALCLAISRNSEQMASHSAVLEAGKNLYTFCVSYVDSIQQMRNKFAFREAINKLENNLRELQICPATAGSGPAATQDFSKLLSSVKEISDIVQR

- Ki [1]: 0.47 µM
- Ki [2]: 0.59 µM
- Ki [3]: 0.37 µM
- Ki [4]: 1.09 µM
SMILES: c1ccc(CNc2ccnc3oc4ccccc4c23)cc1

- Ki [1]: 2.01 µM
- Ki [2]: 3.45 µM
- Ki [3]: 2.11 µM
- Ki [4]: 9.39 µM
SMILES: c1ccc(CCNc2ccnc3oc4ccccc4c23)cc1

- Ki [1]: 0.3 µM
- Ki [2]: 0.68 µM
- Ki [3]: 0.57 µM
- Ki [4]: 1.09 µM
SMILES: c1ccc2c(CNc3ccnc4oc5ccccc5c34)cccc2c1

- IC50 [5]: 376 µM
- IC50 [6]: 129 µM
- Ki (Angiopoietin-1 receptor): > 1 mM
- Ki [7]: > 1 mM
- Ki (Misshapen-like kinase 1): > 1 mM
- IC50 (CDK6/cyclin D1): 129 µM
- Ki [1]: > 1000 µM
- Ki (Aurora kinase C): > 1 mM
- Ki [8]: > 1 mM
- Ki [9]: > 1 mM
- IC50 (Insulin receptor): 622 µM
- Ki [10]: > 1 mM
- IC50 [11]: 182 µM
- Ki [12]: > 1 mM
- IC50 (Focal adhesion kinase 1): 194 µM
- Ki [3]: 0.15 µM
- Ki [13]: > 1 mM
- Ki [14]: > 1 mM
- IC50 [15]: 271 µM
- Ki (Wee1-like protein kinase): > 1 mM
- Ki [16]: > 1 mM
- Ki [17]: > 1 mM
- Ki [4]: > 1000 µM
- IC50 [18]: 392 µM
- Ki (Aurora kinase A): > 1 mM
- Ki [19]: > 1 mM
- IC50 (LIM domain kinase 1): 759 µM
- Ki [20]: > 1 mM
SMILES: COc1ccc(CNc2ccnc3oc4ccccc4c23)cc1

- Ki [1]: > 1000 µM
- Ki [2]: > 1000 µM
- Ki [3]: 0.58 µM
- Ki [4]: > 1000 µM
SMILES: Clc1cccc(CNc2ccnc3oc4ccccc4c23)c1

SMILES: Clc1ccc(CNc2ccnc3oc4ccccc4c23)cc1
- Ki [1]: 0.18 µM
- Ki [2]: 0.5 µM
- GI50 [21]: 33.9 µM
- LC50 [22]: > 100 µM
- Ki [3]: 0.11 µM
- Ki [4]: 0.68 µM

- Ki [1]: > 1000 µM
- Ki [2]: > 1000 µM
- Ki [3]: > 1000 µM
- Ki [4]: > 1000 µM
SMILES: c1cncc(CNc2ccnc3oc4ccccc4c23)c1

SMILES: N[C@@H](Cc1ccc(N(CCCl)CCCl)cc1)C(=O)O
- GI50 [21]: 33.1 µM

SMILES: COc1cc([C@@H]2c3cc4c(cc3[C@@H](O[C@@H]3O[C@@H]5CO[C@@H](C)O[C@H]5[C@H](O)[C@H]3O)[C@H]3COC(=O)[C@H]23)OCO4)cc(OC)c1O [ETOPOSIDE]
- GI50 [21]: 38.9 µM

SMILES: CCc1c2c(nc3ccc(OC(=O)N4CCC(N5CCCCC5)CC4)cc13)-c1cc3c(c(=O)n1C2)COC(=O)[C@]3(O)CC [IRINOTECAN]
- GI50 [21]: 14.1 µM

Reference: ChEMBL document CHEMBL1287713, “Discovery and selectivity-profiling of 4-benzylamino 1-aza-9-oxafluorene derivatives as lead structures for IGF-1R inhibitors” (Bioorg Med Chem Lett, 2010)
